Data on two compounds can be found in US5428031A, “Methods of treating cardiac arrhythmia” (priority 1993, dated 1995).

Data set [1] deals with guinea pig ventricular myocytes. Nature of the data set: frequency-dependent effects on action potential duration (APD90) in isolated ventricular myocytes. The format is cell-based. The following applies: for APD90 percent change at 0.01 µM / APD90 percent change at 0.03 µM / APD90 percent change at 0.1 µM: Cavia porcellus, Ventricular myocyte; for APD90 percent change at 0.01 µM: 10 nM; for APD90 percent change at 0.03 µM: 30 nM; for APD90 percent change at 0.1 µM: 100 nM; for APD90 % Change: Washout. The procedure:
(§1) Guinea pig ventricular myocytes were isolated using a modification of the procedure described by Mitra R and Morad M., "A Uniform Enzymatic Method for Dissociation of Myocytes from Hearts and Stomachs of Nertilorates", Am. J. Physiol. 249:H1056-60 (1985). Excised hearts were perfused through the aorta (retrograde fashion) at a rate of 10 ml/min with oxygenated, warmed (37° C.) solutions described below. The heart was initially perfused for 7 minutes with a Tyrode's solution containing, in mM: 132 NaCl, 4 KCl, 1.2 MgCl2, 10 HEPES (formal name N-2-Hydroxyethylpiperazine-N-2-ethanesulfonic acid), 5 glucose, pH=7.2. The head was then perfused with the same nominally Ca^2+ -free solution containing 150 units/ml Type II collagenase (Worthington) and 0.5 units/ml Type XIV protease (Sigma) for 8 minutes. This perfusate was followed by a Tyrode's solution containing 0.2 mM CaCl2 (without enzymes) for 5 minutes. The digested ventricles were cut into small pieces and gently shaken until cells were visibly dispersed. The cells were stored at room temperature until use, within 8 hours after isolation.
Cell preparation: Same as described in section I.
Transmembrane action potential measurements were made using a technique similar to that described previously by Salata, J. J. and Wasserstrom, J. A. "Effects of quinicline on action potentials and ionic currents in isolated canine ventricular myocytes", Circ. Res. 62:324-337, 1988. The isolated ventricular myocytes were transferred to a glass bottom experimental perfusion chamber (12×25 mm) filled with a HEPES-Tyrode's solution containing in mM: 132 NaCl, 4 KCl, 1.8 CaCl2, 1.2 MgCl2, 10 HEPES, 5 glucose, pH=7.2 to a height of 2 mm. After the myocytes settled to the bottom of the chamber, they were continuously superfused with preheated HEPES-Tyrode's solution at a rate of 2.0 ml/min. The temperature was monitored and maintained at 36°±0.5° C. The experimental chamber was placed on the stage of an inverted microscope (Nikon Diaphot-TMD) to view the cells. Transmembrane potentials were recorded by means of conventional glass microelectrodes that were filled with 3M KCl and had tip resistances of 40-60 M.OMEGA.. The microelectrode was connected through a Ag--AgCl electrode to the headstage preamplifier (model HS-2, gain=1.0) of an operational amplifier with a high input impedance and variable input capacitance neutralization (Axoclamp -2A, Axon Instruments, Foster City, Calif.). The voltage drop across the microelectrode produced by current injection was compensated electronically with an active bridge circuit immediately-before impalement of a cell. The experimental bath was grounded through a 3M KCl agar bridge and a Ag--AgCl junction. The microelectrodes were positioned carefully at the cell surface using a hydraulic micromanipulator (Narishige Model MO-303, Greenvale, N.Y.). Penetration of the cell membrane was achieved by briefly (1-3 msec)increasing the input capacitance neutralization to cause oscillation of the amplifier. After establishing a stable microelectrode seal, the myocyte was lifted off the bottom of the chamber to allow complete superfusion of the cell. Action potentials were generated by passing current pulses of 1 msec in duration, and with an intensity of 1.2 times threshold at varying stimulus rates through the recording electrode. Cells were allowed to stabilize for 20 minutes before collection of data began. Voltage signals were digitized using an analog to digital converter (TL-1, DMA interface, Axon Instruments, Foster City, Calif.) at a sampling frequency of 2 kHz. Data acquisition and analysis were performed with pClamp software (Axon Instruments, Foster City, Calif.) and an AST 486 computer (Irvine, Calif.). Action potentials were stimulated at rates of either 60, 120, and 180 beats/min and were allowed to stabilized for 1 minute at each rate. […]

A further data set has as its system conscious dogs. In words: electrocardiographic QT interval in conscious dogs, oral. The format is in vivo, dog. The procedure:
Trained, female mongrel dogs, in the weight range of 8 to 16 kg and instruimented with chronic arterial access ports, were deprived of food 18 to 24 hours prior to the study. At test time, the dog was placed in an Alice King Chatham nylon mesh sling for light restraint. Four Grass Instrument Co. Type E2 Platinum Subdermal Electrodes were affixed to the limbs of the dog and connected to a Hewlett-Packard 4700A Cardiograph multi-lead electrocardiogram (ECG) recorder. After approximately a 30-minute stabilization period, one or two pretreatment Lead II ECG tracings were taken over approximately a 30-second interval. Dogs were then dosed via gavage with labrafil (vehicle) or test compound. The volume, administered was 2.0 ml/kg followed by a 15 ml tap-water flush. Lead II ECG recordings were obtained at 15, 30, and 60 minutes and every 30 minutes thereafter for five hours post-drug administration. Dogs were also monitored for blood pressure changes via a Modular Instruments data acquisition system and transducer connected to the arterial access port. Final ECG traces were taken at approximately 24 hours post-treatment. Average QT interval lengths were determined for each time point and QTc values were calculated to correct for variations in heart rate (QTc =QT/√R-R).

Data set [2] deals with guinea pig ventricular myocytes. In words: current-clamp action potential duration (APD90) in isolated myocytes, 0.2 Hz. The following applies: Cavia porcellus, Ventricular myocyte, 4 cells. Format: cell-based. The procedure: as §1, with “The cells were stored at room temperature until use, within 8 hours after isolation.” left out
The suction microelectrode technique described by Giles, W. R. and Shibata, E. F., "Voltage clamp of bull-frog cardiac pacemaker cells: a quantitative, analysis of potassium currents". […]
To record action potentials, single cells were bathed in 1.8 mM Ca^2+ -Tyrode's solution. […] Data were analyzed as percent (%) change in action potential duration at 90% of repolarization (APD90). […]

As to `CN1C(=O)[C@H](NC(=O)/C=C/c2ccc(Cl)cc2Cl)N=C(c2ccccc2)c2ccccc21` [Example 26, E-(+)-N-[(3R)-2,3-Dihydro-1-methyl-2-oxo-5-phenyl-1H-1,4-benzo-diazepin-3-yl]-3-(2,4-dichlorophenyl)-2-propenamide], the APD90 percent change at 0.01 µM is 9.4% in data set [1] (60 beats/min), 10.1% in data set [1] (120 beats/min) and 12.4% in data set [1] (180 beats/min). Moreover, the APD90 percent change at 0.03 µM is 16% in data set [1] (60 beats/min), 14.8% in data set [1] (120 beats/min) and 14.4% in data set [1] (180 beats/min). Besides, the APD90 percent change at 0.1 µM in data set [1] (60 beats/min) turned out to be 24.7%; in data set [1] (120 beats/min) it was 24.3%; in data set [1] (180 beats/min) it was 22.9%. The “APD90 % Change” value is on record as 4.2% in data set [1] (60 beats/min), 5.3% in data set [1] (120 beats/min) and 5.9% in data set [1] (180 beats/min). In addition, in data set [1] (after 20 min of washout), the “reversibility of APD90 increase” value is reported as “nearly completely reversible”. Also, the entries for the “frequency dependence of APD90 increase” value in data set [1] (at higher concentrations) and in data set [1] (at lower concentrations (10 nM)) were “frequency-independent manner” and “forward frequency-dependent manner”, respectively. Moreover, the “effect on action potential duration” value in data set [1] (isolated guinea pig myocytes) was “concentration and rate-dependent increases in the action potential duration”.
With `Cc1cccc(NC(=O)N[C@@H]2N=C(c3ccccc3)c3ccccc3N(C)C2=O)c1` [Compound 4, (R)-N-(2,3-dihydro-1-methyl-2-oxo-5-phenyl-1H-1,4-benzodiazepin-3-yl)-N'-(3-methylphenyl)urea], in the data set with conscious dogs, the “other ECG or cardiovascular effects” value was “no other ECG or cardiovascular effects” and the “prolongation of ECG QT interval” value is on record as “dose-related prolongation of ECG QT interval”. Moreover, the percent increase in APD90 at 5 µM in data set [2] was 202%.
